{"source": "paper PMC10459042", "about": "“Synthesis of 1,2,3-Triazole-Containing Methoxylated Cinnamides and Their Antileishmanial Activity against the Leishmania braziliensis Species” (Pharmaceuticals, 2023)", "key": {"[1]": {"tested_on": "Leishmania braziliensis stationary promastigotes", "test": "In vitro antileishmanial activity against promastigotes (MTT)", "format": "cell-based", "outline": "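L. braziliensis (MHOM/BR/1975/M2904) promastigotes, 1 × 10^6 cells/well, exposed to compounds at 0 to 600 µg/mL for 48 h at 24 °C in Schneider's medium with 20% FBS. Viability by MTT, OD 570 nm; IC50 from sigmoidal dose–response regression.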"}, "[2]": {"tested_on": "L. braziliensis-infected macrophages", "test": "ROS levels in Leishmania-infected macrophages (H2DCFDA)", "format": "cell-based, Leishmania braziliensis", "conditions": "5.0 µg/mL, 48 h at 37 °C", "protocol": "Macrophages (1 × 10^6 cells/mL) were incubated in 96-well culture plates (Nunc, Nunclon, Roskilde, Denmark) and infected with L. braziliensis promastigotes (at a ratio of 10 parasites per cell). The infected macrophages were either left untreated or treated with Compound 28 (at a concentration of 5.0 µg/mL) for 48 h at 37 °C in 5% CO2. The cells were washed with PBS and incubated with 20 μmol/L H2DCFDA (Molecular Probes, Eugene, Oregon, USA) for 30 min in the dark. The fluorescence intensity was measured using a spectrofluorometer (FLx800; BioTek Instruments, Winooski, VT, USA) at 485 nm excitation and 528 nm emission. As a positive control, the infected macrophages were incubated with H2O2 at a concentration of 0.02 µg/mL (0.5 µmol/L). Parasites that were untreated with Compound 28 and not labeled with the fluorescent probe were used as the sample blank.\nFigure 3 Production of ROS in L. braziliensis-infected macrophages treated with Compound 28. Leishmania braziliensis-infected macrophages (1 × 10^5 cells) were incubated with Compound 28 (5.0 µg/mL) for 48 h at 37 °C in a 5% CO2 environment. Subsequently, 2′,7′-dichlorodihydrofluorescein diacetate (H2DCFDA, 9.7 μg/mL) was added for 30 min under dark conditions. The fluorescence levels were measured in a spectrofluorometer at 485/528 nm. H2O2 (0.5 µmol/L) was used as a positive control. […]"}, "[3]": {"tested_on": "L. braziliensis promastigotes", "test": "Membrane permeability evaluation (propidium iodide)", "format": "cell-based, Leishmania braziliensis", "conditions": "one IC50 value, 48 h at 24 °C", "protocol": "L. braziliensis promastigotes (1 × 10^7 cells/mL) were incubated with Compound 28 (at a concentration corresponding to one IC50 value) for 48 h at 24 °C. After washing with PBS, parasites (3 × 10^6 cells/well) were incubated with 1.0 µg/mL PI (Sigma-Aldrich, St. Louis, MO, USA) in the dark for 15 min. The samples were analyzed using a fluorometer microplate reader (FLx800, BioTek Instruments, Winooski, VT, USA), with excitation and emission wavelengths of […], respectively. Parasites that were killed by heating to 65 °C for 10 min were used as controls for the membrane permeabilization. Parasites that were untreated or treated with Compound 28 and not labeled with the fluorescent probe were used as the sample blank.\nFigure 5 Effect of Compound 28 on parasite membrane permeability. Parasite promastigotes were either left untreated or treated with Compound 28 (at a concentration corresponding to the IC50 value) for 48 h. The PI dye fluorescence was measured fluorometrically at excitation and emission wavelengths of 540 and 600 nm, respectively. Parasites heated at 65 °C for 10 min were used as a positive control. The data is presented as the fold increase in PI fluorescence relative to the untreated control. (***), signifying p < 0.001, indicates a statistically significant difference compared with the non-treated control."}}}
{"smiles": "CCN(CC)c1ccc2cc(-n3cc(CNC(=O)/C=C/c4ccc(OC)c(OC)c4)nn3)c(=O)oc2c1", "note": "[Compound 28, N-((1-(7-(diethylamino)-2-oxo-2H-chromen-3-yl)-1H-1,2,3-triazol-4-yl)methyl) (3,4-dimethoxy) cinnamide]", "values": [{"measurement": "Selectivity index (SI), ratio CC50/IC50, promastigotes", "setting": "[1]; CC50 murine macrophages / IC50 promastigotes", "result": 11.1}, {"measurement": "IC50", "setting": "[1]; Leishmania braziliensis, 48 h at 24 °C, MTT, mean ± standard deviation", "result": "106 ± 16.7", "unit": "µg/mL"}, {"measurement": "Increase in ROS levels in treated and infected cells compared with untreated cells", "setting": "[2]", "result": 44.1, "unit": "%"}, {"measurement": "Fold increase in PI-fluorescence compared with untreated parasites", "setting": "[3]", "result": 2.3, "unit": "fold"}]}
